# Reference: patent US10265422B2, “Ethylenediaminetetraacetic acid bis(amide) derivatives and their respective complexes with Mn(II) ion for use as MRI contrast agent” (BRACCO IMAGING S.P.A., priority 2015, dated 2019)
# Where two headings read alike, the source gives them in different places.
# What was measured:
# [1] = biological target: human serum albumin (HSA) (Homo sapiens, UniProt P02768); settings: presence of HSA, 20 MHz
# [2] = Relaxivity r1 in water at 20 MHz; assay type: physicochemical; settings: absence of HSA
# [3] = Decomplexation of Mn(II) complexes: transmetallation with Cu2+ ions followed by spectrophotometry; assay type: physicochemical; settings: pH 7.4, 25 °C, read-out: t½ (half-life of decomplexation) (converted)
# Description: These studies were performed by following the transmetallation reaction between the Mn^2+ based complexes and Cu^2+ ions by spectrophotometry as reported in […]. Inorganic Chemistry (2012), 51, 10065-7.
# [4] = calculated using rate constants
# human serum albumin (HSA), sequence (P02768 25-609): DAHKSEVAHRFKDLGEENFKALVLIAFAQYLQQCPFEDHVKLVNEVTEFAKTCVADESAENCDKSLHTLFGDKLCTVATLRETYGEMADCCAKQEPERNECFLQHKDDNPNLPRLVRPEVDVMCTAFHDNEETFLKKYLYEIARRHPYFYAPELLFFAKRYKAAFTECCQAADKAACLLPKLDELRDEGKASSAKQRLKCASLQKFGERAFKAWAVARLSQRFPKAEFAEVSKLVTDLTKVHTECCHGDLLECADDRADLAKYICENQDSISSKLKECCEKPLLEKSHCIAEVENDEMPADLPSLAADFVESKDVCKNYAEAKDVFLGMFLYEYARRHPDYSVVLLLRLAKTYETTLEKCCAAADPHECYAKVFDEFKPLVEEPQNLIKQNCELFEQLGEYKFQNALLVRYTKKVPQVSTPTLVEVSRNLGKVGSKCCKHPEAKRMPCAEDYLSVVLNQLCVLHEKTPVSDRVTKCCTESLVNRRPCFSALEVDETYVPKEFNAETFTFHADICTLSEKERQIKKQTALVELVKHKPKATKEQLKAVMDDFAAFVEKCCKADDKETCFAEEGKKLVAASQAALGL
SMILES,r1 HSA (relaxivity) ([1]; 25 °C) [mM⁻¹ s⁻¹],r1 HSA (relaxivity) ([1]; 37 °C) [mM⁻¹ s⁻¹],r1 (relaxivity) ([2]; 25 °C) [mM⁻¹ s⁻¹],r1 (relaxivity) ([2]; 37 °C) [mM⁻¹ s⁻¹],"half-life [3, 4] [h]",half-life ([3]; footnote: half-life in seconds) [h]
O=C(O)CN(CC(=O)N1CCC(C(=O)O)CC1)C1CCCCC1N(CC(=O)O)CC(=O)N1CCC(C(=O)O)CC1 (stereo not drawn),5.98,4.65,4.97,3.75,–,–
O=C(O)CN(CC(=O)N1CCOCC1)C1CCCCC1N(CC(=O)O)CC(=O)N1CCOCC1 (stereo not drawn),7.64,6.57,3.77,2.95,–,–
O=C(O)CN(CC(=O)NC(CO)CO)C1CCCCC1N(CC(=O)O)CC(=O)NC(CO)CO (stereo not drawn) [drawing 24],6.01,4.44,5.17,3.94,–,–
O=C(O)CN(CC(=O)N1CCC(Cc2ccccc2)CC1)c1ccccc1N(CC(=O)O)CC(=O)N1CCC(Cc2ccccc2)CC1 [drawing 28],28.20,23.84,5.29,4.04,–,–
O=C(O)CN(CC(=O)N1CCCCC1)C1CCCCC1N(CC(=O)O)CC(=O)N1CCCCC1 (stereo not drawn) [drawing 29],–,–,–,–,285,–
CN(C)C(=O)CN(CC(=O)O)C1CCCCC1N(CC(=O)O)CC(=O)N(C)C (stereo not drawn) [drawing 38],–,–,–,–,131,–
O=C(O)CN(CC(=O)N1CCC(Cc2ccccc2)CC1)c1ccccc1N(CC(=O)O)CC(=O)N1CCC(Cc2ccccc2)CC1 [drawing 41],–,–,–,–,–,0.0167

# The remaining lines, values ahead:
r1 HSA (relaxivity) ([1]; 25 °C) [mM⁻¹ s⁻¹],r1 HSA (relaxivity) ([1]; 37 °C) [mM⁻¹ s⁻¹],r1 (relaxivity) ([2]; 25 °C) [mM⁻¹ s⁻¹],r1 (relaxivity) ([2]; 37 °C) [mM⁻¹ s⁻¹],"half-life [3, 4] [h]",half-life ([3]; footnote: half-life in seconds) [h],SMILES
19.44,18.16,5.56,4.17,–,–,O=C(O)CN(CC(=O)N1CCC(Cc2ccccc2)CC1)C1CCCCC1N(CC(=O)O)CC(=O)N1CCC(Cc2ccccc2)CC1 (stereo not drawn)
5.63,4.56,4.43,3.49,–,–,O=C(O)CN(CC(=O)N1CCCCC1)C1CCCCC1N(CC(=O)O)CC(=O)N1CCCCC1 (stereo not drawn) [drawing 20]
13.10,9.94,4.37,3.43,–,–,CN(C)C(=O)CN(CC(=O)O)C1CCCCC1N(CC(=O)O)CC(=O)N(C)C (stereo not drawn) [drawing 25]
6.55,5.37,4.64,3.62,–,–,CCCCNC(=O)CN(CC(=O)O)C1CCCCC1N(CC(=O)O)CC(=O)NCCCC (stereo not drawn) [drawing 26]
9.09,6.78,4.60,3.50,–,–,O=C(O)CN(CC(=O)N1CCCCC1)c1ccccc1N(CC(=O)O)CC(=O)N1CCCCC1 [drawing 27]
–,–,–,–,166,–,O=C(O)CN(CC(=O)NC(CO)CO)C1CCCCC1N(CC(=O)O)CC(=O)NC(CO)CO (stereo not drawn) [drawing 37]
–,–,–,–,57,–,CCCCNC(=O)CN(CC(=O)O)C1CCCCC1N(CC(=O)O)CC(=O)NCCCC (stereo not drawn) [drawing 39]
–,–,–,–,–,0.0231,O=C(O)CN(CC(=O)N1CCCCC1)c1ccccc1N(CC(=O)O)CC(=O)N1CCCCC1 [drawing 40]
